The test has as its target T1, PlaF (Pseudomonas aeruginosa, UniProt G3XCU7).
T1 construct: gene PA2949; purified PlaF (pBBR-plaFH6, His-tagged) reconstituted into phospholipid liposomes
In words: p-NPB esterase assay with purified PlaF; Michaelis-Menten kinetics (Km increased, vmax unchanged). It is filed as biochemical.

T1 sequence (G3XCU7 entry or part of it): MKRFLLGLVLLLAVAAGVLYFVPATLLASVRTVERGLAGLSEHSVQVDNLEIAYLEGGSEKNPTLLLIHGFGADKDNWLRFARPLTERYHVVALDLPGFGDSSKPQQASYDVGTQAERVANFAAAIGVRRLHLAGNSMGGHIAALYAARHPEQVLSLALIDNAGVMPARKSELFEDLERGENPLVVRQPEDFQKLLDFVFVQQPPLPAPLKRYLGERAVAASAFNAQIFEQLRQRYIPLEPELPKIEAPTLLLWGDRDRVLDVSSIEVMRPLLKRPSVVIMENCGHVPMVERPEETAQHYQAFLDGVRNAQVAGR

Compound `COCCN1CCC(N(Cc2ccc(-c3ccc(C(F)(F)F)cc3)cc2)C(=O)Cn2c(SCc3cccc(F)c3F)cc(=O)c3ccccc32)CC1` [rilapladib] yielded an inhibition at 400 µM of around 50%.

In turn, `O=C(/C=C/c1ccc(/C=C/C(=O)Nc2ccc(C3=NCCN3)cc2)cc1)Nc1ccc(C2=NCCN2)cc1` [GW4869] yielded an inhibition at 69.2 µM of around 30%. For `CCN(CC)CCN(Cc1ccc(-c2ccc(C(F)(F)F)cc2)cc1)C(=O)Cn1c(SCc2ccc(F)cc2)nc(=O)c2c1CCC2` [darapladib], the inhibition at 400 µM was around 50%.

For the origin of these results see paper PMC12955470, “A novel approach to combat Pseudomonas aeruginosa: repurposing pharmaceuticals for inhibition of phospholipase A” (Microbiology Spectrum, 2026).
